{
  "source": "patent US9175003B2",
  "about": "“Substituted azoanthracene derivatives and intermediates for preparation thereof” (TransTech Pharma, LLC, priority 2009, dated 2015)",
  "data": [
    {"biological_target": "human GLP-1 receptor (Homo sapiens (Human), UniProt P43220)", "sequence (P43220 24-463)": "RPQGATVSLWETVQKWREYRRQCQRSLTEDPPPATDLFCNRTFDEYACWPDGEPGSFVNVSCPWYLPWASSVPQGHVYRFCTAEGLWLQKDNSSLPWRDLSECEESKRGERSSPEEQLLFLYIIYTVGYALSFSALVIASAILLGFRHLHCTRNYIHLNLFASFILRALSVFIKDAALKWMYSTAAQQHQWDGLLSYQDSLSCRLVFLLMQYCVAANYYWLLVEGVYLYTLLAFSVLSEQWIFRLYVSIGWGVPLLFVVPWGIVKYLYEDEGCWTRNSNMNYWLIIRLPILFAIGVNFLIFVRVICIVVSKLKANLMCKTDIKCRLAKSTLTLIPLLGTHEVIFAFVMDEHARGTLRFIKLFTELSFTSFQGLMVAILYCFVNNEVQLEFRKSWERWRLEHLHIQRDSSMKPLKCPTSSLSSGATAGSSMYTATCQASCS", "settings": "read-out: Mean EC50; cAMP, HTRF detection, 30 min at 37° C., HEK-293 cells expressing cloned human GLP-1 receptor", "units": {"EC50": "nM"}, "values": [
      {"smiles": "Cc1nccc(-c2ccc(C[C@H](NC(=O)[C@@H]3Cc4cc5c(cc4CN3C(=O)c3ccccc3)O[C@@H](c3ccc(OCC4CCCC4)cc3)CO5)C(=O)O)cc2)c1C", "note": "[Example 305, (S)-2-{[(3S,8S)-7-Benzoyl-3-(4-cyclopentylmethoxy-phenyl)-2,3,6,7,8,9-hexahydro-[1,4]dioxino[2,3-g]isoquinoline-8-carbonyl]-amino}-3-[4-(2,3-dimethyl-pyridin-4-yl)-phenyl]-propionic acid]", "EC50": 200},
      {"smiles": "Cc1cc(Oc2ccc(C[C@H](NC(=O)[C@@H]3Cc4cc5c(cc4CN3C(=O)c3ccccc3)O[C@@H](c3ccc(OCc4ccc(Cl)c(Cl)c4)cc3)CO5)C(=O)O)cc2)ccn1", "note": "[Example 177, (S)-2-({(3S,8S)-7-Benzoyl-3-[4-(3,4-dichloro-benzyloxy)-phenyl]-2,3,6,7,8,9-hexahydro-[1,4]dioxino[2,3-g]isoquinoline-8-carbonyl}-amino)-3-[4-(2-methyl-pyridin-4-yloxy)-phenyl]-propionic acid]", "EC50": 150},
      {"smiles": "Cc1nc(C(=O)N2Cc3cc4c(cc3C[C@H]2C(=O)N[C@@H](Cc2ccc(-c3ccnc(C)c3C)cc2)C(=O)O)OC[C@H](c2ccc(OC[C@H]3CC[C@H](C)CC3)cc2)O4)c(C)o1", "note": "[Example 222, (S)-2-({(3S,8S)-7-(2,5-Dimethyl-oxazole-4-carbonyl)-3-[4-(trans-4-methyl-cyclohexyl-methoxy)-phenyl]-2,3,6,7,8,9-hexahydro-[1,4]dioxino[2,3-g]isoquinoline-8-carbonyl}-amino)-3-[4-(2,3-dimethyl-pyridin-4-yl)-phenyl]-propionic acid]", "EC50": 75},
      {"smiles": "Cc1nccc(Oc2ccc(C[C@H](NC(=O)[C@@H]3Cc4cc5c(cc4CN3C(=O)NC3CCC3)O[C@@H](c3ccc(OCc4ccc(Cl)c(Cl)c4)cc3)CO5)C(=O)O)cc2)c1C", "note": "[Example 347, (S)-2-({(3S,8S)-7-Cyclobutylcarbamoyl-3-[4-(3,4-dichloro-benzyloxy)-phenyl]-2,3,6,7,8,9-hexahydro-[1,4]dioxino[2,3-g]isoquinoline-8-carbonyl}-amino)-3-[4-(2,3-dimethyl-pyridin-4-yloxy)-phenyl]-propionic acid]", "EC50": 315},
      {"smiles": "N#Cc1ccc(-c2ccc(C[C@H](NC(=O)[C@@H]3Cc4cc5c(cc4CN3S(=O)(=O)c3ccc(N4CCOCC4)nc3)OC(c3ccc(OCc4ccc(Cl)c(Cl)c4)cc3)CO5)C(=O)O)cc2)cc1", "note": "(stereo in doubt) [Example 112, (S)-3-(4′-Cyano-biphenyl-4-yl)-2-{[(S)-3-[4-(3,4-dichloro-benzyloxy)-phenyl]-7-(6-morpholin-4-yl-pyridine-3-sulfonyl)-2,3,6,7,8,9-hexahydro-[1,4]dioxino[2,3-g]isoquinoline-8-carbonyl]-amino}-propionic acid]", "EC50": 48},
      {"smiles": "CC[C@@H](c1ccccc1)N1Cc2cc3c(cc2C[C@H]1C(=O)N[C@@H](Cc1ccc(-c2ccnc(C)c2C)cc1)C(=O)O)OC[C@H](c1ccc(OC(C)C)cc1)O3", "note": "[Example 162, (S)-3-[4-(2,3-Dimethyl-pyridin-4-yl)-phenyl]-2-{[(3S,8S)-3-(4-isopropoxy-phenyl)-7-((S)-1-phenyl-propyl)-2,3,6,7,8,9-hexahydro-[1,4]dioxino[2,3-g]isoquinoline-8-carbonyl]-amino}-propionic acid]", "EC50": 56},
      {"smiles": "Cc1nccc(Oc2ccc(C[C@H](NC(=O)[C@@H]3Cc4cc5c(cc4CN3C(=O)NC3CCCCC3)O[C@@H](c3ccc(OCc4ccc(Cl)c(Cl)c4)cc3)CO5)C(=O)O)cc2)c1C", "note": "[Example 344, (S)-2-({(3S,8S)-7-Cyclohexylcarbamoyl-3-[4-(3,4-dichloro-benzyloxy)-phenyl]-2,3,6,7,8,9-hexahydro-[1,4]dioxino[2,3-g]isoquinoline-8-carbonyl}-amino)-3-[4-(2,3-dimethyl-pyridin-4-yloxy)-phenyl]-propionic acid]", "EC50": 271}
    ]}
  ]
}
